Reference: patent US20060079453A1, “Hla binding peptides and their uses” (priority 2002, published 2006)
Read-outs that look alike come from different tables or passages of the source. No end group written: not given here.

Legend:
Assay in all cases: biochemical
Format in all cases: binding
HLA-B*4002 = HLA-B*4002 (Homo sapiens, UniProt P01889, A65T/A93T/A95T/D138N/D201E/D98Y/E176V/E204Q/E69K/K202T/N87E/Q56L/Q94N/R180L/S48T/Y33H/Y91S)
HLA-B*4403 = HLA-B*4403 (Homo sapiens, UniProt P01889, A223V/A65T/A93T/A95T/D201E/D98Y/E176V/E187L/E204Q/E69K/G107R/H137Y/K202T/L105A/L119I/N104T/N87E/Q56L/Q94N/R106L/R155S/R180L/S101N/S121R/S35A/S48T/T118I/V36M/W191S/Y140D/Y91S)
HLA-B*4501 = HLA-B*4501 (Homo sapiens, UniProt P01889, A329T/A65T/A93T/A95T/C349S/D138N/D201E/D98Y/E176V/E187L/E204Q/E69K/H137Y/K202T/L119W/N87E/Q56L/Q94N/R155S/R180D/S121R/S35A/S48T/V127L/V306I/V36M/W191S/Y140L/Y33H/Y91S)
HLA-B*4001 = HLA-B*4001 (Homo sapiens, UniProt P01889, A65T/A93T/A95T/D138N/D98Y/E176V/E69K/N87E/Q56L/Q94N/R180L/S121R/S35A/S48T/T167S/V36M/W171L/Y33H/Y91S)
HLA-B*4402 = HLA-B*4402 (Homo sapiens, UniProt P01889, A223V/A65T/A93T/A95T/D201E/D98Y/E176V/E187L/E204Q/E69K/G107R/H137Y/K202T/L105A/L119I/N104T/N87E/Q56L/Q94N/R106L/R155S/R180D/S101N/S121R/S35A/S48T/T118I/V36M/W191S/Y140D/Y91S)
HLA-B*1801 = HLA-B*1801 (Homo sapiens, UniProt P01889, A329T/A93T/A95T/C349S/D201E/D54G/D98Y/E176V/E187T/E204Q/E69T/K202T/Q94N/R155S/R180L/S121R/V306I/Y140S/Y195H/Y33H/Y91S)

Row | Compound | IC50 (HLA-B*4403) [nM] | IC50 (HLA-B*4001) [nM] | IC50 (HLA-B*4402) [nM] | IC50 (HLA-B*1801) [nM] | IC50 (HLA-B*4002) [nM] | other results
1 | CC[C@H](C)[C@H](NC(=O)[C@@H](NC(=O)[C@H](CS)NC(=O)[C@@H](NC(=O)[C@@H]1CCCN1C(=O)[C@@H]1CCCN1C(=O)[C@H](CCC(N)=O)NC(=O)[C@@H]1CCCN1C(=O)[C@H](CC(C)C)NC(=O)[C@H](CCCNC(=N)N)NC(=O)[C@H](CCC(=O)O)NC(=O)CN)[C@@H](C)CC)[C@@H](C)O)C(=O)O |  |  |  |  |  | IC50 (HLA-B*4002; B*4002): 3.9 nM; IC50 (HLA-B*4403; B*4403): 2.5 nM
2 | AEGIVTGQY |  |  |  |  |  | IC50 (HLA-B*4501; B*4501): 418 nM; IC50 (HLA-B*4403; B*4403): 12 nM; IC50 (HLA-B*4001; B*4001): 6460 nM; IC50 (HLA-B*4402; B*4402): 255 nM; IC50 (HLA-B*1801; B*1801): 7180 nM
3 | AEIPTRVNY |  |  |  |  |  | IC50 (HLA-B*4002; B*4002): 5440 nM; IC50 (HLA-B*4403; B*4403): 23 nM; IC50 (HLA-B*4001; B*4001): 7830 nM; IC50 (HLA-B*1801; B*1801): 1690 nM
4 | AEMGKFKYSF |  |  |  |  |  | IC50 (HLA-B*4002; B*4002): 3.8 nM; IC50 (HLA-B*4403; B*4403): 31 nM; IC50 (HLA-B*4402; B*4402): 18 nM; IC50 (HLA-B*1801; B*1801): 155 nM
5 | AEMGKGSFKY |  |  |  |  |  | IC50 (HLA-B*4002; B*4002): 3820 nM; IC50 (HLA-B*4501; B*4501): 305 nM; IC50 (HLA-B*4403; B*4403): 90 nM; IC50 (HLA-B*4001; B*4001): 6430 nM; IC50 (HLA-B*1801; B*1801): 1620 nM
6 | AENDWVTVY | 165 | 954 | 96 | 324 |  | 
7 | AENLDVTVY | 340 | 220 | 673 |  | 12100 | 
8 | AENLKVTVY | 487 | 7750 | 253 | 138 |  | IC50 (HLA-B*4501): 9620 nM
9 | AENLTVTVY | 208 | 689 | 327 |  |  | IC50 (HLA-B*4501): 793 nM
10 | AENLVVTVY | 203 | 876 |  | 62 | 1340 | IC50 (HLA-B*4501): 718 nM
11 | AENLWDTVY | 68 | 1140 |  | 775 | 2090 | 
12 | AENLWFTVY | 62 | 699 |  | 360 | 668 | IC50 (HLA-B*4501): 90 nM
13 | AENLWKTVY | 383 | 850 |  | 913 | 406 | 
14 | AENLWLTVY | 226 | 1700 | 647 | 666 | 884 | 
15 | AENLWNTVY | 81 | 1340 | 66 | 336 | 957 | 
16 | AENLWTTVY | 50 | 246 | 51 |  |  | 
17 | AENLWVDVY | 92 | 700 | 334 | 415 | 3440 | 
18 | AENLWVFVY | 310 | 857 | 348 |  |  | 
19 | AENLWVNVY | 76 |  | 159 |  |  | IC50 (HLA-B*4501): 266 nM
